Data from patent publication US20050065195A1, “Oxadiazolyl-biphenylcarboxamides and their use as p38 kinase inhibitors” (priority 2001, published 2005).

Row | Structure (SMILES) | melting point [°C]
1 | COc1ccc(C(=O)Nc2ccc(-c3ccc(C(C)=O)cc3)cc2)cc1CCN(C)C [1(b), N-(4′-Acetyl[1,1′-biphenyl]-4-yl)-3-[2-(dimethylamino)ethyl]-4-methoxybenzamide] | 236 to 240
2 | COc1ccc(C(=O)Nc2ccc(-c3ccccc3C(C)O)cc2)cc1CCCN(C)C.Cl (stereo not shown) | 224 to 227
3 | COc1ccc(C(=O)Nc2ccc(-c3ccc(-c4nc(C)no4)cc3C)cc2)cc1CCCN(C)C [Example 71, 3-[3-(Dimethylamino)propyl]-4-methoxy-N-[2′-methyl-4′-(3-methyl-1,2,4-oxadiazol-5-yl)[1,1′-biphenyl]-4-yl]benzamide] | 166 to 167
4 | COc1ccc(C(=O)Nc2ccc(-c3ccc(CO)c(O)c3)cc2)cc1CCCN(C)C [Example 20(b), 3-[3-(Dimethylamino)propyl]-N-[3′-hydroxy-4′-(hydroxymethyl)[1,1′-biphenyl]-4-yl]-4-methoxybenzamide] | 171 to 173
5 | COc1ccc(C(=O)Nc2ccc(-c3ccc(CO)cc3C)c(C)c2)cc1CCCN(C)C [Example 41, 3-[3-(Dimethylamino)propyl]-N-[4′-(hydroxymethyl)-2,2′-dimethyl[1,1′-biphenyl]-4-yl]-4-methoxybenzamide] | 68 to 70
6 | CCc1ccc(-c2ccc(NC(=O)c3ccc(OC)c(CCCN(C)C)c3)cc2)cc1 [Example 6, 3-[3-(Dimethylamino)propyl]-N-(4′-ethyl[1,1′-biphenyl]-4-yl)-4-methoxybenzamide] | 200 to 202
7 | COc1ccc(C(=O)Nc2ccc(-c3ccc(C(C)=O)cc3)c(C)c2)cc1CCCN(C)C.Cl | 264 to 266
